Data reported in patent publication US10111437B2, “Substituted guanidines as fungicides” (Nippon Soda Co., Ltd., priority 2015, dated 2018).
Counter-ions that a name gives are not always drawn.

Compared with N=C(N)c1ccc(OCCCCCn2ccn(CCOc3ccc(C(=N)N)cc3)c2=N)cc1 (as salt: hydrochloride) [compound 93], N=C(N)c1ccc(OCCCCn2ccn(CCCCOc3ccc(C(=N)N)cc3)c2=N)cc1 (as salt: hydrochloride) [compound 36, 4-[4-[3-[4-(4-carbamimidoylphenoxy)butyl]-2-imino-imidazol-1-yl]butoxy]benzamidine] is lower in melting point: 183 to 187 °C for the first, 178 to 180 °C for the second.

N=C(N)c1ccc(OCCCn2ccn(CCCSc3ccc(C(=N)N)cc3)c2=N)cc1 (as salt: hydrochloride) [compound 173] and N=C(N)c1ccc(SCCCn2ccn(CCCSc3ccc(C(=N)N)cc3)c2=N)cc1 (as salt: hydrochloride) [compound 181] cannot be ordered by melting point: 168 to 171 °C for the first, 169 to 172 °C for the second.

N=C(N)c1ccc(OCCCn2ccn(CCCOc3ccc(C(=N)N)c(F)c3)c2=N)cc1F (as salt: hydrochloride) [compound 103] and N=C(NCCCOc1ccc(C(=N)N)c(F)c1)NCCCOc1ccc(C(=N)N)c(F)c1 (as salt: hydrochloride) [compound 82] cannot be ordered by melting point: 183 to 187 °C for the first, 181 to 185 °C for the second.

Compared with N=C(N)c1ccc(OCCCn2ccn(CCCc3cc4cc(C(=N)N)ccc4o3)c2=N)cc1 (as salt: hydrochloride) [compound 126], Cc1c(C)n(CCCOc2ccc(C(=N)N)cc2)c(=N)n1CCCOc1ccc(C(=N)N)cc1 (as salt: hydrochloride) [compound 109] is lower in melting point: 227 to 236 °C for the first, 188 to 199 °C for the second.

N=C(NCCCc1cc2cc(C(=N)N)ccc2o1)NCCCc1cc2cc(C(=N)N)ccc2o1 (as salt: hydrochloride) [compound 80] and Cc1cc(C(=N)N)ccc1OCCCCNC(=N)NCCCCOc1ccc(C(=N)N)cc1C (as salt: hydrochloride) [compound 84] cannot be ordered by melting point: 174 to 182 °C for the first, 171 to 180 °C for the second.

First: N=C(NCCOCc1ccc(C(=N)N)cc1)NCCOCc1ccc(C(=N)N)cc1 (as salt: hydrochloride) [compound 226]
Second: N=C(NCCCOCc1ccc(C(=N)N)cc1)NCCCOc1ccc(C(=N)N)cc1 (as salt: trifluoroacetate) [compound 143]
The melting point of the first is higher: 262 to 267 °C for the first, 192 to 197 °C for the second.

With N=C(NCC#Cc1ccc(C(=N)N)cc1)NCC#Cc1ccc(C(=N)N)cc1 (as salt: hydrochloride) [compound 155] the melting point was 220 °C.
